Reference: the NIST ThermoML archive (doi:10.1007/s10765-011-1111-y)
“And” between values parts separate entries of the source, which are not always exact repeats. Identical values can stand only once. ± gives the expanded uncertainty stated by the source.

Test: mn = molality of the nth substance listed, in mol/kg
Conditions: 101 kPa, Liquid, m1 = 1

Structure (SMILES)	viscosity (303.15 K)	viscosity (308.15 K)	viscosity (313.15 K)	viscosity (318.15 K)	viscosity (323.15 K)
CC(=O)[O-].CC(=O)[O-].[Ca+2] [calcium acetate] + O	1.545 ± 0.038 mPa·s and 1.563 ± 0.038 mPa·s	1.412 ± 0.035 mPa·s	1.265 ± 0.032 mPa·s	1.127 ± 0.029 mPa·s	0.999 ± 0.026 mPa·s
CC(=O)[O-].[K+] [potassium ethanoate] + O	0.975 ± 0.025 mPa·s	0.8864 ± 0.023 mPa·s	0.805 ± 0.021 mPa·s	0.719 ± 0.019 mPa·s	0.655 ± 0.018 mPa·s
CC(=O)[O-].[Na+] [sodium ethanoate] + O	1.095 ± 0.028 mPa·s	1.005 ± 0.026 mPa·s	0.9052 ± 0.024 mPa·s	0.801 ± 0.021 mPa·s	0.721 ± 0.019 mPa·s
